Data on one molecule can be found in paper PMC7486443, “Generation of Phenothiazine with Potent Anti-TLK1 Activity for Prostate Cancer Therapy” (iScience, 2020).

Among the targets are EPHB3 (Homo sapiens, UniProt P54753); FLT3 (Homo sapiens, UniProt P36888); PLK3 (Homo sapiens, UniProt Q9H4B4); TNIK (Homo sapiens, UniProt Q9UKE5); EGFR(L861Q) (Homo sapiens, UniProt P00533, L861Q); DAPK3 (Homo sapiens, UniProt O43293); ROCK2 (Homo sapiens, UniProt O75116); IRAK3 (Homo sapiens, UniProt Q9Y616); AAK1 (Homo sapiens, UniProt Q2M2I8); EGFR(L858R) (Homo sapiens, UniProt P00533, L858R); FGFR4 (Homo sapiens, UniProt P22455); LRRK2 (Homo sapiens, UniProt Q5S007); CDKL5 (Homo sapiens, UniProt O76039); AURKC (Homo sapiens, UniProt Q9UQB9); ERBB4 (Homo sapiens, UniProt Q15303).

Test in all cases: biochemical
Common to all, as to design: DiscoverX KINOMEscan scanMAX competition binding panel, single concentration, percent of control; remaining binding: dose or concentration left out as unconfirmed
Details in all cases: KINOMEscan binding, percent of control; read-out: Table S4_SCANMAX REPORT - related to Fig. 1 / Percent Control

The target in another assay is T1, VEGFR2 (Homo sapiens, UniProt P35968).
T1 construct: gene KDR

The target in another assay is T2, CDC2L1 (Homo sapiens, UniProt P21127).
T2 construct: gene CDK11B

The next assay deals with T3, MEK4 (Homo sapiens, UniProt P45985).
T3 construct: gene MAP2K4

The next assay concerns the target T4, MKK7 (Homo sapiens, UniProt O14733).
T4 construct: gene MAP2K7

DAPK3, sequence (O43293 whole entry): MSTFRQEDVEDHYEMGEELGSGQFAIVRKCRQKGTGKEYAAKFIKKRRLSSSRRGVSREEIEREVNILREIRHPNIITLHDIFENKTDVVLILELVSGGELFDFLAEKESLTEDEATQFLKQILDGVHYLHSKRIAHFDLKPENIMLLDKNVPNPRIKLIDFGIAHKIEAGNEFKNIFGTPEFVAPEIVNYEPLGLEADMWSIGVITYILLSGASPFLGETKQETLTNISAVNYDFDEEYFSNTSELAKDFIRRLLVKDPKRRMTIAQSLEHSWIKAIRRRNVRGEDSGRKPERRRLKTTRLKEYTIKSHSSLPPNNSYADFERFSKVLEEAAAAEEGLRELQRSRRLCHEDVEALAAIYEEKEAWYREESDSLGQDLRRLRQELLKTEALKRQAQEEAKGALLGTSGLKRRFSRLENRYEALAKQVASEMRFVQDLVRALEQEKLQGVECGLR
CDKL5, sequence (O76039 whole entry): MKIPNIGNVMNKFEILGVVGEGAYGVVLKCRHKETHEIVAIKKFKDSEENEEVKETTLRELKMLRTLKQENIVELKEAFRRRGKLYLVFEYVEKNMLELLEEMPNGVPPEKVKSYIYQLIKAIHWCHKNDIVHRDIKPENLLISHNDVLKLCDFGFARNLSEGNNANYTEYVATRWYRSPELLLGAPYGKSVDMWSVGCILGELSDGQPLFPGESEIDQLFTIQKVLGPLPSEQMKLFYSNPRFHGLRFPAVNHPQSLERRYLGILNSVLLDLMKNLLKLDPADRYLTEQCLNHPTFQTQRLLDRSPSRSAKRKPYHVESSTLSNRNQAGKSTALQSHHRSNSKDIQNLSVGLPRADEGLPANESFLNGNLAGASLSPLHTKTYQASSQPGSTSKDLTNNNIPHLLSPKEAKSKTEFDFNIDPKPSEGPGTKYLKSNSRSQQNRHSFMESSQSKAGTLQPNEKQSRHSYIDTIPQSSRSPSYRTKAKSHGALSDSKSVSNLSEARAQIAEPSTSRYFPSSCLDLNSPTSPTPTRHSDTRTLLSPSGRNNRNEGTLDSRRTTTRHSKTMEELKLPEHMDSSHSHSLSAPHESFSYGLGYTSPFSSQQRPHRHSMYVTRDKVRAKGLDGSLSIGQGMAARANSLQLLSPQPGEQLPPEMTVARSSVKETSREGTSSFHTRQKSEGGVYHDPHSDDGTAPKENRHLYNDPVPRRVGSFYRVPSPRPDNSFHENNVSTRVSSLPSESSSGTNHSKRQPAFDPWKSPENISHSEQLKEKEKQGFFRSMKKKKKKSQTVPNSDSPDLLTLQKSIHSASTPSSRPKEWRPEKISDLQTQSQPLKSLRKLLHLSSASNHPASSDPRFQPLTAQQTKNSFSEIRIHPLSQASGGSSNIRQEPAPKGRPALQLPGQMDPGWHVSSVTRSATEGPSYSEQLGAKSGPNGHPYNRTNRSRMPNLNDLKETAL
T1 sequence (P35968 whole entry): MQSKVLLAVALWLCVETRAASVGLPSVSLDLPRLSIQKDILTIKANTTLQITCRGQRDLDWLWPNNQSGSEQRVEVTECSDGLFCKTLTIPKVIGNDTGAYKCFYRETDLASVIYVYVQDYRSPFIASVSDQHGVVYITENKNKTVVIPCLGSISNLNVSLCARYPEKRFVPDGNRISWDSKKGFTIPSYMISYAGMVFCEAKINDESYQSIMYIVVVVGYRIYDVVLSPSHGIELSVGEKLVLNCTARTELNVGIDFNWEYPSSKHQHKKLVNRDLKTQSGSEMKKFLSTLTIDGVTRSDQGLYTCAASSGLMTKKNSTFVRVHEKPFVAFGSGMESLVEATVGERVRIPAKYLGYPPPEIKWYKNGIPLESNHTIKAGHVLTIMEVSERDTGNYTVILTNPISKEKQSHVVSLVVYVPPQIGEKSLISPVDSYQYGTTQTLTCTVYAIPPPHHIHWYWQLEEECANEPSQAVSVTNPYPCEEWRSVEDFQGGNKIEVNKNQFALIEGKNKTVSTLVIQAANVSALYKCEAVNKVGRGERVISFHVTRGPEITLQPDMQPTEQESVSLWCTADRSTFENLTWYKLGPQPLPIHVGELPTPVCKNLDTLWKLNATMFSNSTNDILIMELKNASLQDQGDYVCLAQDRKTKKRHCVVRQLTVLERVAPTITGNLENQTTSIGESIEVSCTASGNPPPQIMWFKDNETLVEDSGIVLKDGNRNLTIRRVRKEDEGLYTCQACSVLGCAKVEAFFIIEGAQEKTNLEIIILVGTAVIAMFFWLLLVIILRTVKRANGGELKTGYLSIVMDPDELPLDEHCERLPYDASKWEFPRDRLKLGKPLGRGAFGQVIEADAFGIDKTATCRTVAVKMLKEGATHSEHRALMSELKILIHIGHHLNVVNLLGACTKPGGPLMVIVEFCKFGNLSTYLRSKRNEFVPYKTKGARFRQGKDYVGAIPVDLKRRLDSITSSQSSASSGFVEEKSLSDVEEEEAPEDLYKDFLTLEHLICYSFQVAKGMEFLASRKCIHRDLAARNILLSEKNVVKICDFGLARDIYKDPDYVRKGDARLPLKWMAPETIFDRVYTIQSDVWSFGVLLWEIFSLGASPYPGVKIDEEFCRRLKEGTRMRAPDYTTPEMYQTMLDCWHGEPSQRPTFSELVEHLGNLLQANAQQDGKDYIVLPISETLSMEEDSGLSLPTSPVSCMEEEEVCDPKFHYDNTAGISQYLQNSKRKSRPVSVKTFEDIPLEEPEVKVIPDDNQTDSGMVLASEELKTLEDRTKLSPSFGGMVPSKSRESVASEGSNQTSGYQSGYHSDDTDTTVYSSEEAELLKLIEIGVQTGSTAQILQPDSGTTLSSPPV
TNIK, sequence (Q9UKE5 whole entry): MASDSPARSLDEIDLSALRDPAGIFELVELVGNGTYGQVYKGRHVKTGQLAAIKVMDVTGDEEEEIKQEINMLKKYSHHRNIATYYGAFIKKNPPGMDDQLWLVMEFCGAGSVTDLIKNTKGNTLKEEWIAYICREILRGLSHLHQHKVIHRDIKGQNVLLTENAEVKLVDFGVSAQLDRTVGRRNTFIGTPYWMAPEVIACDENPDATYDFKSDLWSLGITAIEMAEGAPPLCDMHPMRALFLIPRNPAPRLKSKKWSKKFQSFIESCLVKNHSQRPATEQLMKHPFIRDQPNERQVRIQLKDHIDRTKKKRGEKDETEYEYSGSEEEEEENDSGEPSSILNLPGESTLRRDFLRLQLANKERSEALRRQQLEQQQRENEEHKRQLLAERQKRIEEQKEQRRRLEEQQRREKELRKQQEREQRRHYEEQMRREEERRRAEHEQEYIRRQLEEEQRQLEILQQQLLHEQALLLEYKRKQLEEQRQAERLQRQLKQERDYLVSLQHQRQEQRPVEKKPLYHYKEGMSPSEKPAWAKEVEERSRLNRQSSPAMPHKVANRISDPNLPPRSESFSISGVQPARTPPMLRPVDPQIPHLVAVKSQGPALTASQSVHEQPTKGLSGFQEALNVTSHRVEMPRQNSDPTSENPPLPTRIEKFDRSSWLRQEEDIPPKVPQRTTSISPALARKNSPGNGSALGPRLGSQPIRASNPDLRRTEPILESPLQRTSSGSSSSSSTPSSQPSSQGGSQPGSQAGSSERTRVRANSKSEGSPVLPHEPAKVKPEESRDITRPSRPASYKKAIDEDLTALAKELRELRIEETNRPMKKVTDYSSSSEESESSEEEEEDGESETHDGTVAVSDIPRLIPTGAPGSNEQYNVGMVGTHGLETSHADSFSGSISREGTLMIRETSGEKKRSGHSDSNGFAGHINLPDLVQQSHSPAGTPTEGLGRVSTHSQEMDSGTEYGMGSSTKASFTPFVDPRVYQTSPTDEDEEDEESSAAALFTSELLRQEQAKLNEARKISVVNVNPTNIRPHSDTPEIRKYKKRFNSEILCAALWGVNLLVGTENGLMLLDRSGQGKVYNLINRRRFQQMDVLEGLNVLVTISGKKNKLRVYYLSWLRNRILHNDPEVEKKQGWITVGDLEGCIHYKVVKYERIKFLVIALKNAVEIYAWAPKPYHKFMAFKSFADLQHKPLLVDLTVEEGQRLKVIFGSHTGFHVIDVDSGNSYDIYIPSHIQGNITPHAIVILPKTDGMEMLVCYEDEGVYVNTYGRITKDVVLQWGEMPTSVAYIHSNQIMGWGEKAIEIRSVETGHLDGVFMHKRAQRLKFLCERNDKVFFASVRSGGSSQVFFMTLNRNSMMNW
T3 sequence (P45985 whole entry): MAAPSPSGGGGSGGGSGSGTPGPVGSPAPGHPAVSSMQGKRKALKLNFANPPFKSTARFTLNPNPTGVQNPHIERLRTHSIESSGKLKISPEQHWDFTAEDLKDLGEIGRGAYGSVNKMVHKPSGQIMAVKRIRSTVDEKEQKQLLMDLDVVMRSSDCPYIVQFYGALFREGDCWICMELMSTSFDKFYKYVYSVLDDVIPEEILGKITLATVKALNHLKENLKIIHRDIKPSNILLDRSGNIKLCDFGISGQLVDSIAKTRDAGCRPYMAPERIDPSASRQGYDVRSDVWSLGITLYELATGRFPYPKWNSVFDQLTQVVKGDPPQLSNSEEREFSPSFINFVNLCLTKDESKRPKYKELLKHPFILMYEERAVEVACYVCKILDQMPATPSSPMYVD
T4 sequence (O14733 whole entry): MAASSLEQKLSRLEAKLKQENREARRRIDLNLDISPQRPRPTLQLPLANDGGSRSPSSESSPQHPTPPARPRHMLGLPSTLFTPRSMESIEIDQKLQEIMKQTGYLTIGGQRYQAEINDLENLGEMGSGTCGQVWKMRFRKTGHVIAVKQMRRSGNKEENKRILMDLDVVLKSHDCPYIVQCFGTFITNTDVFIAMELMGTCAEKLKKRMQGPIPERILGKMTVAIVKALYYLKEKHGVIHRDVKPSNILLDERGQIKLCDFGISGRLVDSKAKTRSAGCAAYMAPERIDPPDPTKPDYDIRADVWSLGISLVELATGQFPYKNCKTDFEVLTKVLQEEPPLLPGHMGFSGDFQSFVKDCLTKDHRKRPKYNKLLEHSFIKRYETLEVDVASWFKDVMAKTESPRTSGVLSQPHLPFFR

For the molecule `c1ccc2c(c1)Sc1ccccc1N2CCN1CCOCC1` [J54], the remaining binding was 100% on EPHB3; 100% at VEGFR2; 100% on FLT3; 100% at PLK3; 98% on TNIK; 94% at EGFR(L861Q). For the same molecule, the remaining binding came out at 100% at CDC2L1; 96% on DAPK3; 98% at ROCK2; 90% on IRAK3; 80% at AAK1; 92% on EGFR(L858R). For the same molecule, the remaining binding at FGFR4 is 100%; at MEK4, 100%; at LRRK2 it was 100%; at CDKL5, 100%; at AURKC, 100%; at MKK7, 79%. Further, the remaining binding on ERBB4 amounted to 100%.
